Measurements: ChEMBL document CHEMBL1201862, “PubChem BioAssay data set” (2004)
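Five compound concentrations were applied to cells in 96-well plates for 48 hours; endpoints were derived by simple linear interpolation of the resulting dose-response curve. Here, GI50 denotes the concentration required for 50% inhibition of growth.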 Active and inactive are the calls of the source. Cut-off read from the data, not from the text of the source: active = GI50 up to about 1.1 µM and inactive = higher.

How the values were obtained:
Assay in all cases: NCI anticancer screen, dose series, 48 h
[1] = test system: DU-145
[2] = test system: SF-539
[3] = test system: A549
[4] = test system: UO-31
[5] = test system: BT-549
[6] = test system: SF-295
[7] = test system: MOLT-4
[8] = test system: LOX IMVI
[9] = test system: MCF7
[10] = test system: 786-0
[11] = test system: SW-620
[12] = test system: UACC-62
[13] = test system: OVCAR-5
[14] = test system: UACC-257
[15] = test system: KM12
[16] = test system: M14
[17] = test system: SK-MEL-28
[18] = test system: HCC 2998
[19] = test system: SNB-75
[20] = test system: NCI-H522

Measured: GI50

CCC1OC2C(CC=C(C)C)=C3OC(C)(O)C(C)(CC)C(O)C3=C3OC(=O)C=C1C32 (stereo unspecified)
inactive: [1] 50.5 µM | [2] 15.8 µM | [3] 37.6 µM | [4] 25.4 µM | [5] 23 µM | [6] 45.8 µM | [7] 24.5 µM | [8] 12.4 µM | [9] 31.3 µM | [10] 37.2 µM | [11] 39.4 µM | [12] 26.7 µM | [13] 74.8 µM | [14] 33.9 µM | [15] 34.7 µM | [16] 30.8 µM | [17] 50.8 µM | [18] 27 µM

CO/N=C1\CC(NC(=O)C(F)(F)F)c2ccsc21 (stereo unspecified)
inactive: [19] > 100 µM | [1] > 100 µM | [2] > 100 µM | [3] > 100 µM | [4] > 100 µM | [5] > 100 µM | [6] > 100 µM | [7] > 100 µM | [8] > 100 µM | [9] > 100 µM | [11] > 100 µM | [12] > 100 µM | [13] > 100 µM | [14] > 100 µM | [16] > 100 µM | [17] > 100 µM | [18] > 100 µM

CCOC(=O)c1nc2cc(F)cc(F)c2[nH]c1=O
inactive: [19] > 100 µM | [1] > 100 µM | [2] > 100 µM | [3] > 100 µM | [4] 72.8 µM | [5] > 100 µM | [6] > 100 µM | [7] > 100 µM | [8] > 100 µM | [9] > 100 µM | [10] > 100 µM | [11] > 100 µM | [12] > 100 µM | [13] > 100 µM | [14] > 100 µM | [15] > 100 µM | [16] > 100 µM | [17] > 100 µM | [18] > 100 µM

O=CNC(Cc1c[nH]cn1)C(=O)O (stereo unspecified)
inactive: [19] > 100 µM | [1] > 100 µM | [2] > 100 µM | [3] > 100 µM | [4] > 100 µM | [5] > 100 µM | [6] > 100 µM | [8] > 100 µM | [9] > 100 µM | [10] > 100 µM | [11] > 100 µM | [12] > 100 µM | [13] > 100 µM | [14] > 100 µM | [15] > 100 µM | [20] > 100 µM | [16] > 100 µM | [17] > 100 µM

CC(=O)Nc1ccc(C(=O)NN2C(=O)CSC2c2ccc(O)cc2)cc1 (stereo unspecified)
inactive: [19] 91.6 µM | [1] > 100 µM | [2] > 100 µM | [3] > 100 µM | [4] > 100 µM | [5] > 100 µM | [6] > 100 µM | [7] > 100 µM | [9] > 100 µM | [10] > 100 µM | [11] > 100 µM | [12] > 100 µM | [13] > 100 µM | [14] > 100 µM | [15] > 100 µM | [16] > 100 µM | [17] > 100 µM | [18] > 100 µM

COc1cc2nc(-c3cccs3)nc(N3CCN(c4ccccc4)CC3)c2cc1OC
inactive: [19] > 100 µM | [1] > 100 µM | [2] > 100 µM | [3] > 100 µM | [4] > 100 µM | [5] > 100 µM | [6] > 100 µM | [8] > 100 µM | [9] > 100 µM | [10] > 100 µM | [11] > 100 µM | [12] > 100 µM | [13] > 100 µM | [14] > 100 µM | [15] > 100 µM | [20] > 100 µM | [16] > 100 µM | [17] > 100 µM

CC1=NN(c2nc(N)nc(CC#N)n2)C(C)(C)C1
inactive: [19] > 100 µM | [1] > 100 µM | [2] > 100 µM | [4] > 100 µM | [5] > 100 µM | [6] > 100 µM | [7] > 100 µM | [8] > 100 µM | [9] > 100 µM | [10] > 100 µM | [11] > 100 µM | [12] > 100 µM | [14] > 100 µM | [15] > 100 µM | [16] > 100 µM | [17] > 100 µM | [18] > 100 µM

Cn1c(=O)c2[nH]c(C3CC(=O)CC(c4nc5c([nH]4)c(=O)n(C)c(=O)n5C)N3)nc2n(C)c1=O (stereo unspecified)
inactive: [19] > 100 µM | [1] > 100 µM | [2] > 100 µM | [3] > 100 µM | [4] > 100 µM | [5] > 100 µM | [6] > 100 µM | [7] 71.3 µM | [8] > 100 µM | [9] 71.3 µM | [10] > 100 µM | [11] > 100 µM | [12] > 100 µM | [13] > 100 µM | [14] > 100 µM | [15] > 100 µM | [20] > 100 µM | [16] > 100 µM | [17] > 100 µM

COc1ccc(C2SCC(=O)N2NC2=NC(=O)CC(=O)N2)cc1 (stereo unspecified)
inactive: [19] > 100 µM | [1] > 100 µM | [2] > 100 µM | [3] > 100 µM | [4] > 100 µM | [5] > 100 µM | [6] > 100 µM | [7] > 100 µM | [9] > 100 µM | [10] > 100 µM | [11] > 100 µM | [12] > 100 µM | [13] > 100 µM | [14] > 100 µM | [15] > 100 µM | [20] > 100 µM | [16] > 100 µM | [17] > 100 µM | [18] > 100 µM

C/C(=N\Nc1nc2ccccc2s1)c1cccnn1
inactive: [19] 5.5 µM | [1] 1.92 µM | [2] 3.55 µM | [3] 2.23 µM | [4] 1.24 µM | [5] 5.32 µM | [6] 2.31 µM | [7] 3.91 µM | [9] 2.75 µM | [10] 1.26 µM | [11] 3.69 µM | [12] 2.7 µM | [13] 4.02 µM | [14] 2.48 µM | [15] 2.77 µM | [20] 1.72 µM | [16] 3.05 µM | [17] 4.56 µM | [18] 13.2 µM

CSC1(CC(=O)N(C)C)C(=O)Nc2ccccc21 (stereo unspecified)
inactive: [19] > 100 µM | [1] > 100 µM | [2] > 100 µM | [3] > 100 µM | [4] > 100 µM | [5] > 100 µM | [6] > 100 µM | [7] > 100 µM | [8] > 100 µM | [9] > 100 µM | [10] > 100 µM | [11] > 100 µM | [12] > 100 µM | [13] > 100 µM | [14] > 100 µM | [15] > 100 µM | [16] > 100 µM | [17] > 100 µM | [18] > 100 µM
